According to US20130071936A1, “FRET-BASED ZINC(II) ION INDICATOR” (The Florida State University Research Foundation, Inc., priority 2011, published 2013):
Read-outs that look alike come from different tables or passages of the source. Marks after values point to notes of the source that are not given here.

Tests used:
[1] = tested on: mitochondrial zinc(II) in HeLa (S3) cells; experiment: Zinc(II) supplementation experiment, fluorescence microscopy; format: cell-based; conditions: indicator 1.8 μM, 50 μM ZnCl2, λex 405 nm, λem 580-680 nm
Method: FIGS. 15A and 15B are fluorescence images of HeLa (S3) cells incubated with compound (5) (1.8 μM). FIG. 15A depicts no zinc(II) added, and FIG. 15B depicts fluorescence in the presence of 50 μM ZnCl2. A 405 nm diode laser line was used for excitation. λem 580-680 nm. Scale bar: 10 μm. The DIC images are included in FIGS. 16A and 16B.
FIGS. 16A and 16B are DIC and fluorescence overlay images of HeLa (S3) cells incubated with compound (5) (1.8 μM). FIG. 16A depicts no zinc(II) added, and FIG. 16B depicts emission in the presence of 50 μM ZnCl2. A 405 nm diode laser line was used for excitation. λem 580-680 nm. Scale bar: 10 μm.
See also FIGS. 16A and 16B. […] The addition of zinc(II) ion indicator (5) to the group of very few synthetic indicators that target mitochondrial zinc(II) shall aid the characterization of mitochondrial zinc(II) which is intimately correlated to the chemistry of reactive oxygen species (ROS). See E. Tomat, E. M. Nolan, J. Jaworski and S. J. Lippard, J. Am. Chem. Soc., 2008, 130, 15776; G. Masanta, C. S. Lim, H. J. Kim, J. H. Han, H. M. Kim and B. R. Cho, J. Am. Chem. Soc., 2011, 133, 5698; Y. Qin, P. J. Dittmer, J. G. Park, K. B. Jansen and A. E. Palmer, Proc. Nat. Acad. Sci. USA, 2011, 108, 7351; and S. L. Sensi, D. Ton-That, P. G. Sullivan, E. A. Jonas, K. R. Gee, L. K. Kaczmarek and J. H. Weiss, Proc. Natl. Acad. Sci. U.S.A., 2003, 100, 6157. […]

[2] = Spectroscopic data (absorption, emission, fluorescence quantum yield) in CH3CN; format: physicochemical; conditions: for λabs (A band) / λabs (D band) / λem / ∈/10^3 (A band) / ∈/10^3 (D band): complexes: Zn(ClO4)2 10 equiv.
Method: Reagents and solvents were purchased from various commercial sources and used without further purification unless otherwise stated. CH3CN (OmniSolv, EMD) were directly used in titration experiments without purification. All reactions were carried out in oven- or flame-dried glassware. Analytical thin-layer chromatography (TLC) was performed using pre-coated TLC plates with silica gel 60 F254 (EMD) or with aluminum oxide 60 F254 neutral (EMD). Flash column chromatography was performed using 40-63 μm (230-400 mesh ASTM) silica gel (EMD) or alumina (80-200 mesh, pH 9-10, EMD) as the stationary phases. Silica and alumina gel was flame-dried under vacuum to remove absorbed moisture before use. ^1H NMR spectra were recorded at 300 MHz on a Varian Mercury spectrometer. ^13C NMR spectra were recorded at 125 MHz, on a Bruker Avance spectrometer. All chemical shifts were reported in δ units relative to tetramethylsilane. High resolution mass spectra were obtained at the Mass Spectrometry Laboratory at Florida State University. ESI spectra were obtained on a JEOL AccuTOF spectrometer. Spectrophotometric and fluorometric titrations were conducted on a Varian Cary 100 Bio UV-Visible Spectrophotometer and a Varian Cary Eclipse Fluorescence Spectrophotometer, respectively, with a 1-cm standard quartz cell. The fluorescence quantum yield was determined by comparison of the integrated area of corrected emission spectrum with reference of N,N′-di-n-octyl-2,6-di-n-octylamino-1,4,5,8-naphthalenetetracarboxylic acid diimide (φf=0.53 in CH2Cl2) as the reference by the literature method. See Thalacker, C.; Röger, C.; Würthner, F. J. Org.

[3] = tested on: mitochondria of HeLa (S3) cells transfected with mCerulean3 TOMM-20; experiment: Colocalization by confocal fluorescence microscopy with mCerulean3 TOMM-20; format: cell-based
Method: FIGS. 13A through 13F are confocal fluorescence images of living HeLa (S3) cells transfected with mCerulean3 TOMM-20 that were incubated with zinc(II) ion indicator (5) (1.8 μM, A-C) and zinc(II) ion indicator (4) (6.0 μM, D-F) for 30 min. FIGS. 13A (zinc(II) ion indicator (5)) and 13D (zinc(II) ion indicator (4)) depict the green channel, λex 405 nm, λem 425-475 nm. FIGS. 13B (zinc(II) ion indicator (5)) and 13E (zinc(II) ion indicator (4)) depict the red channel, λex 543 nm, λem 580-680 nm. FIGS. 13C (zinc(II) ion indicator (5)) and 13F (zinc(II) ion indicator (4)) depict the merged image. Scale bar: 10 μm.
FIGS. 14A through 14F are confocal fluorescence images of live HeLa (S3) cells transfected with mCer3 TOMM20 that were incubated with FRET acceptor compound (3) (9.0 μM, A-C) and FRET acceptor compound (2) (52 μM, D-F) for 30 min. FIGS. 14A (FRET acceptor compound (3)) and 14D (FRET acceptor compound (2)) depict the green channel, λex 405 nm, λem 425-475 nm. FIGS. 14B (FRET acceptor compound (3)) and […] (FRET acceptor compound (2)) depict the red channel, λex 543 nm, λem 580-680 nm. FIGS. 14C (FRET acceptor compound (3)) and […] (FRET acceptor compound (2)) depict the merged image. Scale bar: 10 μm.
The colocalization properties of red-emitting compounds (2-5) were studied using HeLa (S3) cells transfected with mCerulean3 TOMM-20, a cyan fluorescent protein (CFP) fused with a mitochondrial targeting sequence whose emission is shown in the green channel. See FIG. 13A for emission spectrum from cells incubated with TPP-containing zinc(II) ion indicator (5), and see FIG. 13D for emission spectrum from cells incubated with zinc(II) ion indicator (4). […] The overall intracellular fluorescence intensity from zinc(II) ion indicator (4) is low, which is consistent with the observed weak fluorescence of the NDI fluorophore in aqueous solutions.
The localization properties of (2-5) were determined via costaining experiments using mCerulean3 TOMM-20, a mitochondrial-specific fusion of the cyan fluorescent protein (CFP) mCerulean3. mCerulean3 is a bright monomeric FP with an emission maximum of 475 nm. HeLa S3 cells were seeded onto Bioptechs Delta-T dishes 48 h prior to experimentation, then transfected about 24 h prior to loading the indicator using an Effectene Transfection Reagent Kit (Qiagen) and 1 μg of DNA. A 1:1 mixture of Dulbecco's modified Eagle's medium and Ham's F-12 (Invitrogen) supplemented with 12.5% fetal bovine serum was used as the culture medium. On the day of experimentation cells were rinsed twice with media and incubated with indicator 5 (1.8 μM) for 30 min. Prior to imaging cells were again rinsed twice with media, then provided with 1 mL of fresh media.
All cells were imaged using an Olympus Fluoview FV1000 confocal laser scanning microscope with an Olympus PLAPO 60× oil-immersion objective (NA=1.4). During experimentation cells were maintained at 37° C. and 5.0% CO2 using a Bioptechs Delta T4 Culture Dish Controller. Individual cells were imaged sequentially in two channels, using a 543 nm Helium-Neon laser line to excite the indicator and a 405 nm diode laser line to excite the FP. Cells were selected by the quality of FP expression, as the indicators tended to load homogenously into the cells. All data was collected using FluoView Software (Olympus). Laser power and detection settings were optimized for each image to fill LUTs. A pinhole size of 200 μm was used for each image. […]

[4] = pKa and effect of pH on emission; format: physicochemical
Method: FIG. 10 is a graph depicting the effect of pH on emission spectra of zinc(II) ion chelated FRET donor compound (1) (pH=2.7-10.4).
The titration experiments using zinc(II) ion indicator (4) were also carried out in an aqueous/organic mixed solvent (1:9 MOPS buffer (pH 7.2)/CH3CN). […] (FIG. 9). Comparing to the observations in CH3CN, the fluorescence is rather dim. The loss of fluorescence can be explained by the hydrogen bonding interaction between the protic solvent and the carbonyl groups on NDI, which provides a non-radiative deactivation pathway. See F. Würthner, S. Ahmed, C. Thalacker and T. Debaerdemaeker, Chem. Eur. J., 2002, 8, 4742. […] By extension, the fluorescence of zinc(II) ion indicators (4) and (5) would not be affected by the fluctuations of pH within the physiological range.

[5] = CH3CN, data taken from Younes et al. J. Org. Chem. 2009, cited from earlier work
[6] = λex = 400 nm, Zn(ClO4)2 10 equiv.

SMILES	φf ([2]; λex = 565 nm)	λabs [2]	∈/10^3 [2]	λabs (A band) [2]	λabs (D band) [2]	λem [2]	∈/10^3 (A band) [2]	∈/10^3 (D band) [2]	other results
COCCCN1C(=O)c2cc(NCCOc3ccc(/C=C/c4ccc(-c5ccc(COCCOCCOC)cn5)nc4)cc3)c3c4c(cc(NCCCCC[P+](c5ccccc5)(c5ccccc5)c5ccccc5)c(c24)C1=O)C(=O)N(CCCOC)C3=O.[I-] [Compound (5)]	0.28^c	–	–	602 (A) nm	347 (D) nm	633 nm	23 10^3 M^-1 cm^-1	81 10^3 M^-1 cm^-1	red channel fluorescence upon addition of supplemental zinc(II) in the growth media [1]: increase in intramolecular fluorescence; colocalization with mitochondrial CFP (mCerulean3 TOMM-20) ([3]; 30 min incubation, (5) 1.8 μM, (4) 6.0 μM, (3) 9.0 μM, (2) 52 μM): localizes selectively in mitochondria; overall intracellular fluorescence intensity ([3]; red channel λex 543 nm, λem 580-680 nm): surprisingly strong intracellular fluorescence
COCCCN1C(=O)c2cc(NCCOc3ccc(/C=C/c4ccc(-c5ccc(COCCOCCOC)cn5)nc4)cc3)c3c4c(cc(NCCCCC[P+](c5ccccc5)(c5ccccc5)c5ccccc5)c(c24)C1=O)C(=O)N(CCCOC)C3=O.I.[Zn+2] [[Zn(5)]^2+]	–	–	–	602 (A) nm	363 (D) nm	633 nm	21 10^3 M^-1 cm^-1	67 10^3 M^-1 cm^-1	φf [2, 6]: 0.29^e
COCCCNc1cc2c3c(c(NCCOc4ccc(/C=C/c5ccc(-c6ccc(COCCOCCOC)cn6)nc5)cc4)cc4c3c1C(=O)N(CCCOC)C4=O)C(=O)N(CCCOC)C2=O.[Zn+2] [[Zn(4)]^2+]	–	–	–	600 (A) nm	360 (D) nm	633 nm	21 10^3 M^-1 cm^-1	55 10^3 M^-1 cm^-1	φf [2, 6]: 0.31^e
COc1ccc(/C=C/c2ccc(-c3ccc(C)cn3)nc2)cc1.[Zn+2] [[Zn(1)]^2+]	–	–	–	–	–	–	–	–	change of fluorescence intensity with pH ([4]; range of pH 6.0-9.0, intensity at 460 nm, λex 380 nm): little change; φf ([5]; λex = 365 nm): 0.46^a; λabs [5]: 374 nm; λem [5]: 528 nm; ∈/10^3 [5]: 28 10^3 M^-1 cm^-1

Now from value to molecule, other results behind:

φf ([2]; λex = 565 nm)	λabs [2]	∈/10^3 [2]	SMILES	λabs (A band) [2]	λabs (D band) [2]	λem [2]	∈/10^3 (A band) [2]	∈/10^3 (D band) [2]	other results
–	345 nm	34 10^3 M^-1 cm^-1	COc1ccc(/C=C/c2ccc(-c3ccc(C)cn3)nc2)cc1 [(1), 5-(4-methoxystyryl)-5′-methyl-2,2′-bipyridine]	–	–	428 nm	–	–	pKa [4]: 4.6; φf ([2]; λex = 365 nm): 0.28^a
0.48^c	607 nm	23 10^3 M^-1 cm^-1	COCCCNc1cc2c3c(c(NCCCCC[P+](c4ccccc4)(c4ccccc4)c4ccccc4)cc4c3c1C(=O)N(CCCOC)C4=O)C(=O)N(CCCOC)C2=O [Compound (3)]	–	–	639 nm	–	–	–
0.51^c	607 nm	22 10^3 M^-1 cm^-1	COCCCNc1cc2c3c(c(NCCCOC)cc4c3c1C(=O)N(CCCOC)C4=O)C(=O)N(CCCOC)C2=O [Compound (2)]	–	–	638 nm	–	–	–
